The experiment addresses T1, recombinant CETP (rCETP) (Homo sapiens, UniProt P11597).
T1 sequence (P11597 18-493): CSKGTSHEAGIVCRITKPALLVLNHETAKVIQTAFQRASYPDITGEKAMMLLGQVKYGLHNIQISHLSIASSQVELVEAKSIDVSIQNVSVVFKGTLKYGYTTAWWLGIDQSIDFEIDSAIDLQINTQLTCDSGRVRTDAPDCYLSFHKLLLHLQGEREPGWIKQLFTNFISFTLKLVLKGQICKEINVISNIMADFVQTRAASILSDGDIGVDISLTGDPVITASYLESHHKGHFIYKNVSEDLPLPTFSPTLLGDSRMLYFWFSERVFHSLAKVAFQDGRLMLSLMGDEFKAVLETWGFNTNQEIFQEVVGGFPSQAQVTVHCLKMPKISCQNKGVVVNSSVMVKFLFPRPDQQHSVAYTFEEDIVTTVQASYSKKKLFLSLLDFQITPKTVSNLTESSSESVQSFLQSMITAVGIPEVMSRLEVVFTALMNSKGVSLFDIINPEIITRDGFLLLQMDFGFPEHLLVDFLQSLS
The experiment in a line: RTA assay using recombinant CETP (2% RTA). It counts as biochemical. To be noted: RTA assay in 2% human serum; read-out: IC50. In short, it runs like this: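 Compounds preincubated 1 h at 37 °C with assay cocktail (CETP buffer: 50 mM Tris pH 7.4, 100 mM NaCl, 1 mM EDTA; human HDL acceptor); transfer started with [3H]cholesteryl oleate- or [3H]triolein-labelled LDL, 60 min at 37 °C. LDL PEG-precipitated; supernatant counted by scintillation, blank-corrected; IC50 from 4-parameter sigmoidal fit of % inhibition vs DMSO control.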

Broadly, the IC50 is the concentration needed to halve the response being measured.

On to `COc1ccc([C@H]2C[C@@H](C(=O)O)C2)cc1-c1ccc(N2CCC2)nc1CN1C(=O)O[C@H](c2cc(C(F)(F)F)cc(C(F)(F)F)c2)[C@@H]1C` [Example 89], for which the IC50 is 29 nM. The same measure for `COc1ccc([C@H]2C[C@H](C(=O)O)C2)cc1-c1ccc(N2CCC2)nc1CN1C(=O)O[C@H](c2cc(C(F)(F)F)cc(C(F)(F)F)c2)[C@@H]1C` [Example 90]: 6 nM; for `COc1ccc([C@H]2C[C@@H](CC(=O)O)C2)cc1-c1ccc(N2CCC2)nc1CN1C(=O)O[C@H](c2cc(C(F)(F)F)cc(C(F)(F)F)c2)[C@@H]1C` [Example 91]: 10 nM; for `COc1ccc([C@H]2C[C@H](CC(=O)O)C2)cc1-c1ccc(N2CCC2)nc1CN1C(=O)O[C@H](c2cc(C(F)(F)F)cc(C(F)(F)F)c2)[C@@H]1C` [Example 92]: 5 nM. On to `COc1ccc(-c2cc(C(=O)O)on2)cc1-c1ccc(N2CCC2)nc1CN1C(=O)O[C@H](c2cc(C(F)(F)F)cc(C(F)(F)F)c2)[C@@H]1C` [Example 93], for which the half-inhibitory concentration (IC50) amounted to 18 nM.

Regarding `COc1ccc(-c2nn(C)c(C(=O)O)c2C)cc1-c1ccc(N2CCC2)nc1CN1C(=O)O[C@H](c2cc(C(F)(F)F)cc(C(F)(F)F)c2)[C@@H]1C` [Example 94], the IC50 was 12 nM. On to `COc1ccc(-c2cnc(C(=O)O)cn2)cc1-c1ccc(N2CCC2)nc1CN1C(=O)O[C@H](c2cc(C(F)(F)F)cc(C(F)(F)F)c2)[C@@H]1C` [Example 95], for which the IC50 was 34 nM. Take `COc1ccc([C@H]2C[C@@H](C(=O)O)C2)cc1-c1c(C)cc(N2CCC2)nc1CN1C(=O)O[C@H](c2cc(C(F)(F)F)cc(C(F)(F)F)c2)[C@@H]1C` [Example 96]: the 50% inhibitory concentration (IC50) is 8 nM. Take `COc1ccc([C@H]2C[C@H](C(=O)O)C2)cc1-c1c(C)cc(N2CCC2)nc1CN1C(=O)O[C@H](c2cc(C(F)(F)F)cc(C(F)(F)F)c2)[C@@H]1C` [Example 97]: the half-inhibitory concentration (IC50) was 4 nM. For `COc1ccc(CCC(=O)O)cc1-c1ccc(N2CCC2)nc1CN1C(=O)O[C@H](c2cc(F)c(F)c(F)c2)[C@@H]1C` [Example 98], the IC50 is 223 nM. Consider `COc1ccc([C@H]2CC[C@H](C(=O)O)CC2)cc1-c1ccc(N2CCC2)nc1CN1C(=O)O[C@H](c2cc(F)c(F)c(F)c2)[C@@H]1C` [Example 101], for which the half-inhibitory concentration (IC50) stood at 37 nM.

Consider `COc1cc(F)c(-c2ccc(C(=O)O)cc2C)cc1-c1ccc(N2CCC2)nc1CN1C(=O)O[C@H](c2cc(F)c(F)c(F)c2)[C@@H]1C` [Example 102], for which the IC50 was found to be 8 nM. `COc1cc(F)c([C@H]2C[C@@H](C(=O)O)C2)cc1-c1ccc(N2CCC2)nc1CN1C(=O)O[C@H](c2cc(C(F)(F)F)cc(C(F)(F)F)c2)[C@@H]1C` [Example 103]: the IC50 is 31 nM.

Regarding `COc1cc(F)c([C@H]2C[C@H](C(=O)O)C2)cc1-c1ccc(N2CCC2)nc1CN1C(=O)O[C@H](c2cc(C(F)(F)F)cc(C(F)(F)F)c2)[C@@H]1C` [Example 104], the IC50 was 4 nM.

For `COc1ccc(-c2ccc(C(=O)O)s2)cc1-c1ccc(N2CCC2)nc1CN1C(=O)O[C@H](c2cc(C(F)(F)F)cc(C(F)(F)F)c2)[C@@H]1C` [Example 105], the half-maximal inhibitory concentration (IC50) was 51 nM.

Turning to `COc1ccc(-c2sc(C(=O)O)cc2C)cc1-c1ccc(N2CCC2)nc1CN1C(=O)O[C@H](c2cc(C(F)(F)F)cc(C(F)(F)F)c2)[C@@H]1C` [Example 106], the IC50 was 12 nM. As for `COc1ccc(-c2csc(C(=O)O)c2)cc1-c1ccc(N2CCC2)nc1CN1C(=O)O[C@H](c2cc(C(F)(F)F)cc(C(F)(F)F)c2)[C@@H]1C` [Example 107], the 50% inhibitory concentration (IC50) came out at 72 nM. `COc1ccc(-c2csc(C(=O)O)c2C)cc1-c1ccc(N2CCC2)nc1CN1C(=O)O[C@H](c2cc(C(F)(F)F)cc(C(F)(F)F)c2)[C@@H]1C` [Example 108]: the half-maximal inhibitory concentration (IC50) was 5 nM.

Take `COc1ccc(-c2cc(C(=O)O)sc2C)cc1-c1ccc(N2CCC2)nc1CN1C(=O)O[C@H](c2cc(C(F)(F)F)cc(C(F)(F)F)c2)[C@@H]1C` [Example 109]: the concentration for half-maximal inhibition (IC50) amounted to 9 nM.

The record behind these values is patent US9221834B2 (Merck Sharp & Dohme Corp., priority 2010, dated 2015).
